Measured values: patent US9045527B2, “Small molecule conjugates with dimetal species for protein inhibition” (WILLIAM MARSH RICE UNIVERSITY, priority 2012, dated 2015)
“Also recorded” adds a separate entry of the source. Blank lines part the entries; values can stand above or below the compound they belong to. Where no end group is shown, it is not given here.

Columns and labels:
K3a,eRh2 coiled coil = experiment: Thermal denaturation of metallopeptide coiled coils monitored by CD; assay type: physicochemical; details: for melting temperature (Tm) of coiled coil: equimolar mixture of E3X peptide and K3a,eRh2 in aq buffer, CD 222 nm
Protocol: FIG. 4 is a table detailing the thermal denaturation of metallopeptide coiled coils. The following standard conditions: equimolar mixtures of E3X and K3a,eRh2 in aq buffer (pH 5.9-6.2) were monitored by CD (222 nm) from −5 to 95° C. at 1° C./min. The peptide concentrations are 100 μM. The CD monitored is at 225 nm and in certain embodiments, the peptide concentration is 33 μM.
Rhodium(II) centers are capable of forming stabilizing secondary contacts at the periphery of a protein binding interface while examining the coiled-coil assembly of rhodium(II) metallopeptides with histidine-containing peptides. A rhodium(II) center linked to a coil at positions a and e of a heptad repeat abcdefg (See FIG. 4) would be proximal to position g of the complementary peptide, E3gX.
Circular Dichroism Spectroscopy: Thermal denaturation experiments (−5-105° C. with a gradient of 1° C./min) were performed on a Jasco-J810 spectropolarimeter with a Peltier temperature controller (Jasco PTC423S). Solutions of 1:1 E3-peptide and K3-metallopeptide (both components 100 or 33 μM) in aqueous buffer in a 0.1 cm sealed cell were analyzed, and ellipticity data were acquired at 222 nm (red data points, S-5). When imidazole additive was utilized, ellipticity data were acquired at 225 nm. Temperature denaturation curves were fit to a two-state unfolding model and plotted (black line, S-5) as fraction unfolded vs. temperature as described previously by Lavigne et al.8 Error associated with the non-linear least squared-determined Tm was determined using the freely available “Solver Statistics” macro for Microsoft Excel.

CAL PDZ domain (CALP) = molecular target: T1, CAL PDZ domain (CALP) (Homo sapiens, UniProt Q9HD26); experiment: Fluorescence anisotropy inhibition binding assay (displacement of fluorescein-labeled iCAL36 reporter); details: wild-type CALP
T1 construct: Expression and purification of the WT and mutant CAL PDZ domains were performed according to commonly described and known methods; made in house
Protocol: Protein binding studies: Fluorescence anisotropy inhibition binding assays were performed using standard procedures. […] Following equilibration, fluorescence anisotropy values were determined using a Tecan Infinite M1000 plate reader (n=3). Inhibitor equilibrium dissociation (Ki) constants were estimated as described. DMSO and rhodium(II) acetate were used as negative controls for unlabeled and labeled peptides, respectively.

N1P1 = N1P1 affinity (uM)
Protocol: Table printed on a drawing sheet, Figure 9B
Title: Metallopeptide ligands for PDZ domains
Head of the field: N1P1 affinity (uM)
The patent's description of the figure: FIG. 9A is a table of metallopeptide inhibitors of CALP. [a], inhibitor equilibrium dissociation (Ki) constants were determined for cognate peptide/metallopeptide pairs. […] In embodiment, [c]
First copying reader's note: The fold values (22x, 95x and so on) are printed beside brackets joining each peptide/Rh-peptide pair and are repeated in both rows; the H301A block stands apart at the right, has no printed unit, and its rows are matched to the sequences by their height on the sheet.
Where the first naming reader finds the target: head: N1P1 affinity (uM)

full-length CAL = molecular target: T2, full-length CAL (Homo sapiens, UniProt Q9HD26); experiment: Capture (pulldown) inhibition assay in epithelial cell lysate; assay type: binding; details: CFBE4lo− cell lysates, BT-iCAL36 bait, n=3
T2 construct: Western blot of native CAL was captured from epithelial lysates; endogenous in cells; host or cells: CFBE41o- epithelial cell lysate
Protocol: Thus, the metalation improves inhibitor potency.
Capture inhibition assays: To determine the ability of inhibitor peptides to displace the interactions of full-length CAL in the presence of the epithelial-cell proteome, a capture inhibition assay was developed. Briefly, using published methods a biotin-conjugated peptide “bait” sequence (BT-iCAL36) was immobilized on streptavidin beads and incubated with clarified lysates of CFBE4lo− cells to capture full-length CAL in the presence of cellular proteins. […] Beads were washed and eluted, and bound proteins were separated by SDS-PAGE and immunoblotted using an α-CAL antibody. Band intensities were separately quantified and averaged (n=3).

CAL PDZ domain = molecular target: T3, CAL PDZ domain (Homo sapiens, UniProt Q9HD26); experiment: HSQC footprinting of 15N-CALP; assay type: binding; details: 125-μM peptide, 2.5% (v/v) DMSO
T3 construct: Expression and purification of the WT and mutant CAL PDZ domains were performed according to commonly described and known methods; made in house
Protocol: HSQC spectra of 15N-CALP determined separately (red) and in the presence of 125-μM E^RhVQSTRL (SEQ ID NO:7) metallopeptide (green) in 2.5% (v/v) DMSO.
The chemical shifts (δ) are reported in units of part per million (ppm) relative to solvent peak. HSQC footprinting: 25 μM N-labeled CAL PDZ protein was also subjected to H, N heteronuclear single quantum correlation spectroscopy (HSQC) analysis, as described, except that tris(2-carboxyethyl)phosphine was omitted from the final dialysis buffers. […] HSQC backbone crosspeaks were assigned by comparison with the previously assigned CALP apo spectrum.

CALP [1] = molecular target: T4, CALP (Homo sapiens, UniProt Q9HD26); experiment: CALP affinity (uM)
T4 construct: Western blot of native CAL was captured from epithelial lysates; endogenous in cells; host or cells: CFBE41o- epithelial cell lysate
Description: Head of the field: CALP affinity (uM)

CALP [2] = molecular target: T4, CALP; experiment: Ki (μM)
Description: Head of the field: Ki (μM)

Ki (N1P1): > 50 µM
Compound: CC[C@H](C)[C@H](NC(=O)[C@@H](NC(=O)[C@H](CO)NC(=O)[C@@H](NC(=O)[C@@H]1CCCN1C(=O)[C@H](Cc1c[nH]c2ccccc12)NC(=O)[C@H](CCC(=O)O)NC(C)=O)[C@@H](C)O)[C@@H](C)CC)C(=O)O [E^RhWPTSII]

CALP affinity (CAL PDZ domain (CALP)): comparable
Compound: QLD^RhVTR: metallopeptide derived from a non-binding, scrambled control sequence (Ac-QLDVTR; also: rhodium(II) metalated, site not placed)

mode of inhibition (CAL PDZ domain): competitive inhibitors
Compound: CC(=O)N[C@@H](CCC(=O)O)C(=O)N[C@H](C(=O)N[C@@H](CCC(N)=O)C(=O)N[C@@H](CO)C(=O)N[C@H](C(=O)N[C@@H](CCCNC(=N)N)C(=O)N[C@@H](CC(C)C)C(=O)O)[C@@H](C)O)C(C)C [E^RhVQSTRL]
inhibition of CAL pulldown (full-length CAL): improved inhibition; also recorded: dose-dependent inhibition

Ki (CALP [1]): > 15 µM
Compound: Ac-EVQSTRF-OH [E^RhVQSTRF]

Ki (CALP [2]): > 500 µM
Compound: Ac-QLDVTR-OH [QLDVTR]

CALP affinity (CAL PDZ domain (CALP)): weak CALP affinity | Ki (N1P1): 0.7 µM
Compound: CC(=O)N[C@H](C(=O)N[C@@H](CCC(N)=O)C(=O)N[C@@H](CC(=O)O)C(=O)N[C@H](C(=O)N[C@@H](CCCNC(=N)N)C(=O)N[C@@H](CC(C)C)C(=O)O)[C@@H](C)O)C(C)C [VQDTRL]

Second part, the compound before the results:

Compound: E3gM: E3 coil peptide with methionine at position g (Ac-EISALEKMISALEQEISALEK)
melting temperature (Tm) of coiled coil (K3a,eRh2 coiled coil): > 70 °C

Compound: CC(=O)[O-].CC(=O)[O-].CC(=O)[O-].CC(=O)[O-].[Rh+2].[Rh+2] [Rh2(OAc)4, rhodium(II) acetate]
Ki (CAL PDZ domain (CALP); n=3, read-out: Ki (inhibitor equilibrium dissociation constant)): 13 ± 5 µM

Compound: E3cH: E3 coil peptide with histidine moved to position c (Ac-EISALEKEISHLEQEISALEK)
melting temperature (Tm) of coiled coil (K3a,eRh2 coiled coil): 47.0 °C

Compound: CC[C@H](C)[C@H](NC(=O)[C@@H](NC(=O)[C@H](CO)NC(=O)[C@@H](NC(=O)[C@@H]1CCCN1C(=O)[C@H](Cc1c[nH]c2ccccc12)NC(=O)[C@H](CCC(=O)O)NC(C)=O)[C@@H](C)O)[C@@H](C)CC)C(=O)O [EWPTSII]
Ki (N1P1): > 500 µM

Compound: E3gE: E3 coil peptide with glutamate at position g (Ac-EISALEKEISALEQEISALEK)
melting temperature (Tm) of coiled coil (K3a,eRh2 coiled coil): 50.2 °C

Compound: E3gF: E3 coil control peptide with non-coordinating phenylalanine at position g (Ac-EISALEKFISALEQEISALEK) [reference compound]
melting temperature (Tm) of coiled coil (K3a,eRh2 coiled coil): 39.5 °C

Compound: CC(=O)N[C@@H](CCC(=O)O)C(=O)N[C@H](C(=O)N[C@@H](CCC(N)=O)C(=O)N[C@@H](CO)C(=O)N[C@H](C(=O)N[C@@H](CCCNC(=N)N)C(=O)N[C@@H](CC(C)C)C(=O)O)[C@@H](C)O)C(C)C [EVQSTRL]
mode of inhibition (CAL PDZ domain): competitive inhibitors

Compound: N[C@@H](CS)C(=O)O [E3gC]
coiled coil stability (K3a,eRh2 coiled coil; assembly with K3a,eRh2): decreased stability

Compound: Ac-EVQSTRF-OH [EVQSTRF]
Ki (CALP [1]): > 1000 µM
